Measurements taken from US20240299415A1, “TREATMENT METHOD FOR INTERSTITIAL PNEUMONIA” (priority 2020, published 2024).

Columns and labels:
Assay type in all cases: in vivo
[1] = tested on: bleomycin-induced pulmonary fibrosis model in rats; assay: Dexamethasone side effect indicators (blood lipid metabolism) in the bleomycin-induced rat pulmonary fibrosis model; conditions: FIG. 3; for leptin level compared with the normal control rats: bleomycin model rats
Experimental: (§1) The quarantine and domestication period was 1 week, after which rats were serpentinely grouped by body weight into control and interstitial pneumonia model groups. On day 0 of the study, rats in the model group were given a single dose of 5 mg/kg bleomycin by a single intratracheal injection of bleomycin. The rats in the control group were given a single drop of saline. Immediately after completion, the animals were placed in an upright position and rotated to facilitate uniform distribution of the drug in the lungs. The animals were placed prone in a warm environment for natural awakening. Animals were fed and watered freely after awakening.
Serum potassium, glucose, triglycerides (TGs), total cholesterol (TC), free fatty acid (FFA), high density lipoprotein (HDL-c), low density lipoprotein (LDL-c), corticosterone (Corticosterone), and blood glucose were measured. HDL-c), low-density lipoprotein cholesterol (LDL-c), corticosterone (CORT), insulin, leptin, 5-hydroxy tryptamine (5-HT), […] norepinephrine (NE).

[2] = tested on: bleomycin-induced rat model of pulmonary fibrosis; assay: Blood inflammatory and pro-fibrotic cytokines (ELISA) in the bleomycin-induced rat model of pulmonary fibrosis; conditions: for bleomycin-induced changes of multiple inflammatory cytokines in the blood of rats (overall statement): compared with the model group, N=6-10
Experimental: as §1
(§2) After the last administration, rats in each group were fasted without water for 12 h, anesthetized by intraperitoneal injection of […] chloral hydrate (3.5 mL/kg), blood was taken from the abdominal aorta, and the serum was separated by centrifugation at 3500 rpm for 15 min. ELISA was performed to detect the cytokines TNF-α, IL-1β, IFN-γ, IL-6, TGF-β1, and IL-4 in alveolar lavage fluid and serum, MCP-1/CCL2, and to detect the content of HYP, MMP2, MMP9, αvβ6, and VEGF in lung tissues, the steps were the same as the standard procedure of the kit.

[3] = tested on: bleomycin-induced pulmonary fibrosis model in rats; assay: Pro-fibrotic proteins and type I collagen in lung tissue of the bleomycin-induced rat pulmonary fibrosis model; conditions: FIG. 2; for multiple pro-fibrotic proteins and collagen type I in rat lung tissues (overall statement): compared with the model group, N=3
Experimental: as §1, §2

[4] = SD rats, bleomycin 5 mg/kg intratracheal day 0, drug by gavage once daily days 1-28, FIG. 1
[5] = bleomycin decreased the level, drug once daily days 1-28, FIG. 1
[6] = bleomycin model rats, change statistically significant

SMILES: C[C@@H]1C[C@H]2[C@@H]3CCC4=CC(=O)C=C[C@]4(C)[C@@]3(F)[C@@H](O)C[C@]2(C)[C@@]1(O)C(=O)CO [dexamethasone]
- leptin level compared with the normal control rats [1]: significantly reduced
- total cholesterol in the blood ([1]; dexamethasone treatment in bleomycin model rats): increase
- triglycerides in the blood ([1]; dexamethasone treatment in bleomycin model rats, increase more pronounced than for total cholesterol): increase

SMILES: CCCCCC(=O)O[C@]1(C(C)=O)CC[C@H]2[C@@H]3CCC4=CC(=O)CC[C@]4(C)[C@H]3CC[C@@]21C [hydroxyprogesterone caproate]
- blood level of IL-1β [2, 4]: significantly reduced
- blood level of IL-6 [2, 4]: significantly reduced
- blood level of MCP-1 [2, 4]: significantly reduced
- blood level of TGF-β1 [2, 4]: significantly reduced
- blood level of TNF-α [2, 4]: significantly reduced
- blood level of IFN-γ [2, 5]: significantly and statistically increased
- blood level of IL-4 [2, 5]: significantly and statistically increased
- bleomycin-induced changes of multiple inflammatory cytokines in the blood of rats (overall statement) ([2]; FIG. 1): significantly improve
- bleomycin-induced changes of multiple inflammatory cytokines in the blood of rats (overall statement) ([2]; FIG. 1, listed as 17-αhydroxyprogesterone): significantly ameliorated
- combined improvement effect on inflammatory and pro-fibrotic factors in the blood, compared with pirfenidone ([2]; versus positive control drug pirfenidone (54 mg/kg)): significantly better than that of the positive control drug pirfenidone
- CXCL-12 level in lung tissue ([3]; bleomycin model rats): reduced
- MMP9 level in lung tissue ([3]; bleomycin model rats): reduced
- collagen type I COL I protein level in lung tissue ([3]; bleomycin model rats): reduced
- MMP2 level in lung tissue [3, 6]: reduced
- PDGF level in lung tissue [3, 6]: reduced
- SMAD2 level in lung tissue [3, 6]: reduced
- SMAD3 level in lung tissue [3, 6]: reduced
- TGF-β1 level in lung tissue [3, 6]: reduced
- multiple pro-fibrotic proteins and collagen type I in rat lung tissues (overall statement) [3]: significant inhibitory effects
- multiple pro-fibrotic proteins and collagen type I in rat lung tissues (overall statement) ([3]; listed as 17-αhydroxyprogesterone): significantly ameliorated
- leptin level compared with the normal control rats [1]: significantly reduced
